This is an account of results in US20240368084A1, “STING MODULATORS, COMPOSITIONS, AND METHODS OF USE” (University of South Florida, priority 2021, published 2024).

In the test the target is His-labeled STING (Homo sapiens, UniProt Q86WV6). Kind of test: Microscale thermophoresis (MST) binding assay. Conditions: for Confidence: confidence class by MST shift units; for Dissociation Constant: MST, incubating with 50 nM 2,3-cGAMP. As to the method:
Nanotemper Monolith NT.115 labeled thermophoresis machine was used with standard treated capillary tubes using samples comprised of labeled protein and titrations of small molecule in 1×PBS. […] Detection of the protein was performed using the blue detection channel with LED excitation power set to 90% and MST set to high allowing 3 s prior to MST on to check for initial fluorescence differences, 25 s for thermophoresis, and 3 s for regeneration after MST off.
Detection of the protein was performed using the blue detection channel with LED excitation power set to 90% and MST set to high allowing 3 s prior to MST on to check for initial fluorescence differences, 25 s for thermophoresis, and 3 s for regeneration after MST off. Analysis was performed using M.O. Affinity Analysis Software with difference between initial fluorescence measured in the first 5 s as compared with thermophoresis at 15 s at 15 different analyte concentrations ranging from 100 zM to 100 μM and exported into Graphpad Prism v.8 using a Log inhibitor v. response 4 parameter fit.
Confidence is categorized as follows: 1=low confidence (<2 MST shift unit−non-statistical); 2=mid confidence (2-3 MST shift units−intermediate); 3=high confidence ([…]−statistical). Dissociation constants are categorized as follows: A<1 μM; 1 μM≤B<100 μM; […]; 10 μM≤D<100 μM.
Reference compounds were assayed using the same protocol.
(In general: MST reads how a fluorescent partner responds to local heating, with and without ligand.)

Sequence of His-labeled STING (Q86WV6 whole entry H232R): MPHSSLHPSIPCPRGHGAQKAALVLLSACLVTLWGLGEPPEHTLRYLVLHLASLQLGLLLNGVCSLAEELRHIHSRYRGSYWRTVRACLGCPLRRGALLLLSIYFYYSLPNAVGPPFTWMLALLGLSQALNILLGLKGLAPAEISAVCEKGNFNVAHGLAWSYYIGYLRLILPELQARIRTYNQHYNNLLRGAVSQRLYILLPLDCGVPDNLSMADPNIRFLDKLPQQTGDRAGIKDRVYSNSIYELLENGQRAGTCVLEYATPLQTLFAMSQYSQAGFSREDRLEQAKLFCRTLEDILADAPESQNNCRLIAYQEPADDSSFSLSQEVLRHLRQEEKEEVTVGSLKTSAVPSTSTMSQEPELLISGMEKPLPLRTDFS

Regarding `Cc1c(Cl)cccc1Nc1ncccc1COCC(O)CO` (stereo not drawn) [Compound 1], the Confidence was 1 (1=low confidence (<2 MST shift unit−non-statistical)). Consider `Cc1c(Cl)cccc1Nc1ncccc1CO` [Compound 4], for which the Confidence is recorded as 2 (2=mid confidence (2-3 MST shift units−intermediate)). With `COC(=O)c1cccnc1Nc1cccc(Cl)c1C` [Compound 9], the Confidence is recorded as 3 (3=high confidence (>2 MST shift units−statistical)). Regarding `CCOC(=O)c1cccnc1Nc1cccc(Cl)c1C` [Compound 10], the “Dissociation Constant” value is on record as “Low R^2” and the Confidence is on record as 1 (1=low confidence (<2 MST shift unit−non-statistical)). As for `CCCOC(=O)c1cccnc1Nc1cccc(Cl)c1C` [Compound 11], the Confidence is recorded as 1 (1=low confidence (<2 MST shift unit−non-statistical)). With `C#CCOC(=O)c1cccnc1Nc1cccc(Cl)c1C` [Compound 13], the Confidence is recorded as 2 (2=mid confidence (2-3 MST shift units−intermediate)).

Regarding `CNC(=O)c1cccnc1Nc1cccc(Cl)c1C` [Compound 14], the Confidence is recorded as 2 (2=mid confidence (2-3 MST shift units−intermediate)). On to `CCNC(=O)c1cccnc1Nc1cccc(Cl)c1C` [Compound 15], for which the Confidence is 1 (1=low confidence (<2 MST shift unit−non-statistical)).

With `CCCNC(=O)c1cccnc1Nc1cccc(Cl)c1C` [Compound 16], the Confidence was 2 (2=mid confidence (2-3 MST shift units−intermediate)). For the compound `C=CCNC(=O)c1cccnc1Nc1cccc(Cl)c1C` [Compound 17], the Confidence was 1 (1=low confidence (<2 MST shift unit−non-statistical)).

As for `Cc1c(Cl)cccc1Nc1ncccc1C(=O)OCC(O)CO` (stereo not drawn) [Compound 19], the Confidence was 1 (1=low confidence (<2 MST shift unit−non-statistical)). With `CCCCC(=O)c1cccnc1Nc1cccc(Cl)c1C` [Compound 21], the Confidence is listed as 2 (2=mid confidence (2-3 MST shift units−intermediate)). Consider `Cc1c(Br)cccc1Nc1ncccc1C(=O)O` [Compound 23], for which the Confidence is recorded as 3 (3=high confidence (>2 MST shift units−statistical)). Turning to `COC(=O)c1cccnc1Nc1cccc(Br)c1C` [Compound 24], the Confidence is 1 (1=low confidence (<2 MST shift unit−non-statistical)). Turning to `Cc1c(Nc2ncccc2C(=O)O)cccc1C(F)(F)F` [Compound 27], the Confidence was 3 (3=high confidence (>2 MST shift units−statistical)). Consider `Cc1c(Cl)cccc1Nc1ccccc1C(=O)O` [Compound 36, Tolfenamic acid, reference compound], for which the “Dissociation Constant” value is given as “No Binding” and the Confidence is listed as 1 (1=low confidence (<2 MST shift unit−non-statistical)). For the compound `Cc1c(Cl)cccc1Nc1ncccc1C(=O)OCCCOC(=O)c1cccnc1Nc1cccc(Cl)c1C` [Compound 41], the Confidence is 1 (1=low confidence (<2 MST shift unit−non-statistical)). In the case of `Cc1c(Br)cccc1Nc1ncccc1C(=O)OCC(O)CO` (stereo not drawn) [Compound 42], the Confidence is 2 (2=mid confidence (2-3 MST shift units−intermediate)). Turning to `Cc1c(F)cccc1Nc1ncccc1C(=O)OCC(O)CO` (stereo not drawn) [Compound 43], the Confidence is recorded as 1 (1=low confidence (<2 MST shift unit−non-statistical)).

Regarding `COC(=O)c1cccnc1Nc1cccc(F)c1C` [Compound 44], the Confidence is reported as 1 (1=low confidence (<2 MST shift unit−non-statistical)). For `Cc1cccc(Nc2ccccc2C(=O)O)c1C` [Compound 45], the “Dissociation Constant” value is reported as “No Binding” and the Confidence is listed as 1 (1=low confidence (<2 MST shift unit−non-statistical)). Take `Cc1cccc(Nc2ccccc2C(=O)OCC(O)CO)c1C` (stereo not drawn) [Compound 46]: the “Dissociation Constant” value is listed as “No Binding” and the Confidence is recorded as 1 (1=low confidence (<2 MST shift unit−non-statistical)). In the same order, the values of `Cc1cccc(Nc2ncccc2C(=O)O)c1C` [Compound 47] are “No Binding” and 1 (1=low confidence (<2 MST shift unit−non-statistical)).

In the case of `Cc1cccc(Nc2ncccc2C(=O)OCC(O)CO)c1C` (stereo not drawn) [Compound 48], the “Dissociation Constant” value is given as “No Binding” and the Confidence is reported as 1 (1=low confidence (<2 MST shift unit−non-statistical)).

As to `Cc1c(Cl)cccc1Nc1ncccc1C(=O)OCCCCOC(=O)c1cccnc1Nc1cccc(Cl)c1C` [Compound 49], the Confidence is on record as 1 (1=low confidence (<2 MST shift unit−non-statistical)). Consider `Cc1c(Cl)cccc1Nc1ncccc1C(=O)OCCCCCOC(=O)c1cccnc1Nc1cccc(Cl)c1C` [Compound 50], for which the Confidence was 3 (3=high confidence (>2 MST shift units−statistical)). With `NC(=O)NC1NC(=O)NC1=O` (stereo not drawn) [Compound 52], the Confidence is reported as 3 (3=high confidence (>2 MST shift units−statistical)).
